Activity calls are given as the source filed them. The rule behind the calls is not given here. Bridge positions count the residues as written; N and C are the ends. Square brackets hold non-standard residues; d marks the D form. Peptide text beside a SMILES is read from it. Orn = NCCC[C@H](N)C(=O)O; Aib = CC(C)(N)C(=O)O; Mpa = O=C(O)CCS
Columns and labels:
Oxytocin receptor [1] = molecular target: T1, Oxytocin receptor (Rattus norvegicus, UniProt P70536); experiment: Antagonist activity in rat uterus by uterotonic assay; format: functional, tissue-based; conditions: read-out: pA2 (converted)
T1 sequence (P70536 whole entry): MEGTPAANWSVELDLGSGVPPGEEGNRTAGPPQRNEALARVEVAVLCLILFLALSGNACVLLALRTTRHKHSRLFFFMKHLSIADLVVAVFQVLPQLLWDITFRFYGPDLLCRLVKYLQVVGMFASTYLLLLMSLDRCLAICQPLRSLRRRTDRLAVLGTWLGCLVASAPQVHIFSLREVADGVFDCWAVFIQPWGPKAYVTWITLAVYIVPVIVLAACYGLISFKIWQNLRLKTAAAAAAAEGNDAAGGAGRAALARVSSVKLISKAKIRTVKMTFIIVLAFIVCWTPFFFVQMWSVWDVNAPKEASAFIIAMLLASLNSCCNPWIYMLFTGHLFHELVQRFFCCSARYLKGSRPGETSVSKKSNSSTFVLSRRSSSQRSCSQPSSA

Oxytocin receptor [2] = molecular target: T2, Oxytocin receptor (Homo sapiens, UniProt P30559); experiment: Displacement of [3H]OT from human OT receptor expressed in HEK cells; format: cell-based, HEK293
T2 sequence (P30559 whole entry): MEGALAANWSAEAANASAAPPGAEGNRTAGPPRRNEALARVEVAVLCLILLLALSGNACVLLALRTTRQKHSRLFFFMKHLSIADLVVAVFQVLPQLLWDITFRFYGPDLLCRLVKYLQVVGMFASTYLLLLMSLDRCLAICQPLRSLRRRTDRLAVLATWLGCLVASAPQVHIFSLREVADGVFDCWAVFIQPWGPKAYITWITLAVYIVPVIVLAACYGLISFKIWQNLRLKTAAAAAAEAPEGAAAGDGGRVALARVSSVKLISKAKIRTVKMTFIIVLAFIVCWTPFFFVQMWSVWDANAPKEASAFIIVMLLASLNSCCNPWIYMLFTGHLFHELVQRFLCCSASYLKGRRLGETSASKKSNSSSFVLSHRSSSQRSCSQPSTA

[3] = molecular target: T3, Oxytocin receptor (Rattus norvegicus) (UniProt P70536); experiment: Agonist activity in rat uterus by uterotonic assay; format: functional, tissue-based
T3 sequence (whole entry): T1 sequence (P70536 whole entry)

[4] = molecular target: Vasopressin V1a receptor (Rattus norvegicus) (UniProt P30560); experiment: Agonist activity in phenoxybenzamine-treated rat up to 0.16 mg/kg by Pressor assay
Sequence of Vasopressin V1a receptor (Rattus norvegicus) (P30560 whole entry, looked up): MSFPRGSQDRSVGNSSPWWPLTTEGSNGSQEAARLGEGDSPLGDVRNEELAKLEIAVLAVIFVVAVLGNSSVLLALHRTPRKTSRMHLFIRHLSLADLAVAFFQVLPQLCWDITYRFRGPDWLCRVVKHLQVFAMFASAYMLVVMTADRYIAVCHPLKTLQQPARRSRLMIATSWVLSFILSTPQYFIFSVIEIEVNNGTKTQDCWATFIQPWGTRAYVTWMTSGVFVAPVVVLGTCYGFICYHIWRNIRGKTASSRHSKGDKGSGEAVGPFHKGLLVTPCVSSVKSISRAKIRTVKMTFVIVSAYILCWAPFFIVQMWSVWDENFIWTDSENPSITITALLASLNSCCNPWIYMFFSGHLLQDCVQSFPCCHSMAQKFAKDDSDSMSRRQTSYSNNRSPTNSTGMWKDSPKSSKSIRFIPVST

[5] = molecular target: Vasopressin V1a receptor (Rattus norvegicus) (UniProt P30560); experiment: Antagonist activity in phenoxybenzamine-treated rat by Pressor assay; conditions: read-out: pA2 (converted)

Row | SMILES | Kb (Oxytocin receptor [1]) [nM] | IC50 (Oxytocin receptor [2]) [nM] | Activity [3] [IU/mg] | Activity [4] | Kb [5] [nM]
1 | CC[C@H](C)[C@@H]1NC(=O)[C@H](Cc2ccc(O)cc2)NC(=O)CCSSC[C@H](C(=O)N2CCC[C@H]2C(=O)N[C@@H](CC(C)C)C(=O)NCC(N)=O)NC(=O)[C@H](CC(N)=O)NC(=O)[C@H](CCC(N)=O)NC1=O | – | – | 803 | – | –
2 | CC[C@H](C)[C@@H]1NC(=O)[C@H](Cc2ccc(O)cc2)NC(=O)[C@@H](N)CSSC[C@@H](C(=O)N2CCCC[C@H]2C(=O)N[C@@H](CC(C)C)C(=O)NCC(N)=O)NC(=O)[C@H](CC(N)=O)NC(=O)[C@H](CCC(N)=O)NC1=O | – | 7 | 79.8 | inactive | –
3 | CCOc1ccc(CC2NC(=O)CCSSC[C@@H](C(=O)N3Cc4ccccc4C[C@@H]3C(=O)N[C@@H](CC(C)C)C(=O)N3Cc4ccccc4C[C@@H]3C(N)=O)NC(=O)[C@H](CC(N)=O)NC(=O)[C@H](CCC(N)=O)NC(=O)[C@H]([C@@H](C)CC)NC2=O)cc1 (stereo in doubt) | 8.51 | 25 | 0 | inactive | –
4 | CC[C@H](C)[C@@H]1NC(=O)[C@H](Cc2ccc(O)cc2)NC(=O)[C@@H](N)CSSC[C@@H](C(=O)N[C@@H](C(=O)N[C@@H](CC(C)C)C(=O)NCC(N)=O)C(C)(C)C)NC(=O)[C@H](CC(N)=O)NC(=O)[C@H](CCC(N)=O)NC1=O | – | – | 1.8 | inactive | –
5 | CC[C@H](C)[C@@H]1NC(=O)[C@H](Cc2ccc(O)cc2)NC(=O)[C@@H](N)CSSC[C@@H](C(=O)N2Cc3ccccc3C[C@H]2C(=O)N[C@@H](CC(C)C)C(=O)NCC(N)=O)NC(=O)[C@H](CC(N)=O)NC(=O)[C@H](CCC(N)=O)NC1=O | 2510 | 130 | 2 | inactive | > 1000
6 | CCOc1ccc(CC2NC(=O)CCSSC[C@@H](C(=O)N[C@H](C(=O)N[C@@H](CC(C)C)C(=O)NCC(N)=O)C(C)(C)C)NC(=O)[C@H](CC(N)=O)NC(=O)[C@H](CCC(N)=O)NC(=O)[C@H]([C@@H](C)CC)NC2=O)cc1 (stereo in doubt) | 11.7 | 1000 | 0 | inactive | –
7 | CC[C@H](C)[C@@H]1NC(=O)[C@H](Cc2ccc(O)cc2)NC(=O)[C@@H](N)CSSC[C@@H](C(=O)N[C@H](C(=O)N[C@@H](CC(C)C)C(=O)NCC(N)=O)C(C)(C)C)NC(=O)[C@H](CC(N)=O)NC(=O)[C@H](CCC(N)=O)NC1=O | – | 1380 | – | – | –
8 | CCOc1ccc(C[C@H]2NC(=O)CCSSC[C@@H](C(=O)N3CCC[C@H]3C(=O)N[C@@H](CCCN)C(=O)NCC(N)=O)NC(=O)[C@H](CC(N)=O)NC(=O)[C@H]([C@@H](C)O)NC(=O)[C@H]([C@@H](C)CC)NC2=O)cc1 [ATOSIBAN] ([Mpa][dY](Et)ITNCP[Orn]G-NH2; disulfide 1-6) | 5.13 | – | 0 | – | –
9 | CC[C@H](C)[C@@H]1NC(=O)[C@H](Cc2ccc(O)cc2)NC(=O)[C@@H](N)CSSC[C@@H](C(=O)NC(C)(C)C(=O)N[C@@H](CC(C)C)C(=O)NCC(N)=O)NC(=O)[C@H](CC(N)=O)NC(=O)[C@H](CCC(N)=O)NC1=O (H-CYIQNC[Aib]LG-NH2; disulfide 1-6) | – | 75 | 1.7 | inactive | –
10 | CCOc1ccc(C[C@H]2NC(=O)[C@@H](N)CSSC[C@@H](C(=O)N3CCC[C@H]3C(=O)N[C@@H](CC(C)C)C(=O)NCC(N)=O)NC(=O)[C@H](CC(N)=O)NC(=O)[C@H](CCC(N)=O)NC(=O)[C@H]([C@@H](C)CC)NC2=O)cc1 | 43.7 | – | 0 | – | –
11 | CC[C@H](C)[C@@H]1NC(=O)[C@H](Cc2ccc(O)cc2)NC(=O)[C@@H](N)CSSC[C@@H](C(=O)N2CCC[C@H]2C(=O)N[C@@H](CC(C)C)C(=O)NCC(N)=O)NC(=O)[C@H](CC(N)=O)NC(=O)[C@H](CCC(N)=O)NC1=O | – | – | 546 | – | –
12 | CCOc1ccc(CC2NC(=O)CCSSC[C@@H](C(=O)NC(C)(C)C(=O)N[C@@H](CC(C)C)C(=O)N3CCCC[C@@H]3C(N)=O)NC(=O)[C@H](CC(N)=O)NC(=O)[C@H](CCC(N)=O)NC(=O)[C@H]([C@@H](C)CC)NC2=O)cc1 (stereo in doubt) | – | – | 0 | inactive | –
13 | CCOc1ccc(CC2NC(=O)CCSSC[C@@H](C(=O)N[C@H](C(=O)N[C@@H](CC(C)C)C(=O)NCC(N)=O)C(C)(C)C)NC(=O)[C@H](CC(N)=O)NC(=O)[C@H](CCC(N)=O)NC(=O)[C@H](C(C)(C)C)NC2=O)cc1 (stereo in doubt) | 355 | 7850 | 0 | inactive | –
14 | CCOc1ccc(CC2NC(=O)CCSSC[C@@H](C(=O)N3Cc4ccccc4C[C@@H]3C(=O)N[C@@H](CC(C)C)C(=O)NC(C)(C)C(N)=O)NC(=O)[C@H](CC(N)=O)NC(=O)[C@H](CCC(N)=O)NC(=O)[C@H]([C@@H](C)CC)NC2=O)cc1 (stereo in doubt) | 4.9 | 80 | 0 | inactive | –
15 | CC(C)C[C@H](NC(=O)[C@@H](NC(=O)[C@@H]1CSSC[C@H](N)C(=O)N[C@@H](Cc2ccc(O)cc2)C(=O)N[C@@H](C(C)(C)C)C(=O)N[C@@H](CCC(N)=O)C(=O)N[C@@H](CC(N)=O)C(=O)N1)C(C)(C)C)C(=O)NCC(N)=O | 741 | 51700 | – | – | –

Results, then the molecule that gave them:

Row | Kb (Oxytocin receptor [1]) [nM] | IC50 (Oxytocin receptor [2]) [nM] | Activity [3] [IU/mg] | Activity [4] | Kb [5] [nM] | SMILES
16 | 13.5 | 55 | – | – | – | CCOc1ccc(C[C@H]2NC(=O)CCSSC[C@@H](C(=O)NC(C)(C)C(=O)N[C@@H](CC(C)C)C(=O)N3Cc4ccccc4C[C@@H]3C(N)=O)NC(=O)[C@H](CC(N)=O)NC(=O)[C@H](CCC(N)=O)NC(=O)[C@H]([C@@H](C)CC)NC2=O)cc1
17 | 10 | 380 | 1 | inactive | – | CC[C@H](C)[C@@H]1NC(=O)[C@H](Cc2ccc(O)cc2)NC(=O)CCSSC[C@@H](C(=O)N2Cc3ccccc3C[C@@H]2C(=O)N[C@@H](CC(C)C)C(=O)NCC(N)=O)NC(=O)[C@H](CC(N)=O)NC(=O)[C@H](CCC(N)=O)NC1=O
18 | – | – | – | – | 151 | CCc1ccc(C[C@H]2NC(=O)CCSSC[C@@H](C(=O)N3CCC[C@H]3C(=O)N[C@@H](CC(C)C)C(=O)NCC(N)=O)NC(=O)[C@H](CC(N)=O)NC(=O)[C@H](CCC(N)=O)NC(=O)[C@H]([C@@H](C)CC)NC2=O)cc1
19 | 17.8 | 485 | 0 | inactive | – | CCOc1ccc(CC2NC(=O)CCSSC[C@@H](C(=O)NC(C)(C)C(=O)N[C@@H](CC(C)C)C(=O)NCC(N)=O)NC(=O)[C@H](CC(N)=O)NC(=O)[C@H](CCC(N)=O)NC(=O)[C@H]([C@@H](C)CC)NC2=O)cc1 (stereo in doubt)
20 | 12.6 | 40 | 0 | inactive | – | CCOc1ccc(CC2NC(=O)CCSSC[C@@H](C(=O)N3CCCC[C@H]3C(=O)N[C@@H](CC(C)C)C(=O)NCC(N)=O)NC(=O)[C@H](CC(N)=O)NC(=O)[C@H](CCC(N)=O)NC(=O)[C@H]([C@@H](C)CC)NC2=O)cc1 (stereo in doubt)
21 | 6.31 | 51 | 0 | inactive | > 1000 | CCOc1ccc(CC2NC(=O)CCSSC[C@@H](C(=O)N3Cc4ccccc4C[C@@H]3C(=O)N[C@@H](CC(C)C)C(=O)NCC(N)=O)NC(=O)[C@H](CC(N)=O)NC(=O)[C@H](CCC(N)=O)NC(=O)[C@H]([C@@H](C)CC)NC2=O)cc1 (stereo in doubt)
22 | – | – | 0 | inactive | – | CC(C)C[C@H](NC(=O)[C@H](NC(=O)[C@@H]1CSSC[C@H](N)C(=O)N[C@@H](Cc2ccc(O)cc2)C(=O)N[C@@H](C(C)(C)C)C(=O)N[C@@H](CCC(N)=O)C(=O)N[C@@H](CC(N)=O)C(=O)N1)C(C)(C)C)C(=O)NCC(N)=O
23 | 39.8 | – | 0 | inactive | – | CCc1ccc(C[C@@H]2NC(=O)CCSSC[C@@H](C(=O)NC(C)(C)C(=O)N[C@@H](CC(C)C)C(=O)NCC(N)=O)NC(=O)[C@H](CC(N)=O)NC(=O)[C@H](CCC(N)=O)NC(=O)[C@H]([C@@H](C)CC)NC2=O)cc1
24 | 5.01 | – | 0 | inactive | 316 | CCc1ccc(C[C@H]2NC(=O)CCSSC[C@@H](C(=O)NC(C)(C)C(=O)N[C@@H](CC(C)C)C(=O)NCC(N)=O)NC(=O)[C@H](CC(N)=O)NC(=O)[C@H](CCC(N)=O)NC(=O)[C@H]([C@@H](C)CC)NC2=O)cc1
25 | 123 | 8500 | 0 | inactive | – | CC[C@H](C)[C@@H]1NC(=O)[C@H]2Cc3ccccc3CN2C(=O)CCSSC[C@@H](C(=O)NC(C)(C)C(=O)N[C@@H](CC(C)C)C(=O)NCC(N)=O)NC(=O)[C@H](CC(N)=O)NC(=O)[C@H](CCC(N)=O)NC1=O

— ChEMBL document CHEMBL1147207 (Eur J Med Chem, 2007)
